According to ChEMBL document CHEMBL1201862, “PubChem BioAssay data set” (2004):
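1) Cells in 96-well plates. 2) Compound, 48 h, 5 concentrations. 3) Linear interpolation between surrounding doses. 4) Unreached endpoint = highest concentration. GI50 is the concentration that inhibits growth by half.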 The source made the active and inactive calls. No stated cut-off is given here; in the data, active = GI50 up to about 1.1 µM and inactive = higher.

What was measured:
Assay in all cases: NCI-60 cell line screen, 48 h
NCI-H23 = system: NCI-H23
SK-MEL-5 = system: SK-MEL-5
SF-295 = system: SF-295
OVCAR-5 = system: OVCAR-5
HT-29 = system: HT-29
NCI-H226 = system: NCI-H226
SN12C = system: SN12C
NCI/ADR-RES = system: NCI/ADR-RES
IGROV-1 = system: IGROV-1
HCT-116 = system: HCT-116
SK-OV-3 = system: SK-OV-3
KM12 = system: KM12
A498 = system: A498
K562 = system: K562
SNB-19 = system: SNB-19
SK-MEL-2 = system: SK-MEL-2
TK-10 = system: TK-10
SR = system: SR
786-0 = system: 786-0

Row | Structure (SMILES) | GI50 (NCI-H23) | GI50 (SK-MEL-5) | GI50 (SF-295) | GI50 (OVCAR-5) | GI50 (HT-29) | GI50 (NCI-H226) | GI50 (SN12C) | GI50 (NCI/ADR-RES) | GI50 (IGROV-1) | GI50 (HCT-116) | GI50 (SK-OV-3) | GI50 (KM12) | GI50 (A498) | GI50 (K562) | GI50 (SNB-19) | GI50 (SK-MEL-2) | GI50 (TK-10) | GI50 (SR) | GI50 (786-0)
1 | CC1C(=O)OC2CC[N+]3(CC(=O)c4ccc(Br)cc4)CC=C(COC(=O)C(C)(O)C1(C)O)C23 (stereo not drawn) | > 375 µM (inactive) | > 375 µM (inactive) | > 375 µM (inactive) | > 375 µM (inactive) | > 375 µM (inactive) | > 375 µM (inactive) | > 375 µM (inactive) | > 375 µM (inactive) | > 375 µM (inactive) | > 375 µM (inactive) | > 375 µM (inactive) | > 375 µM (inactive) | > 375 µM (inactive) | > 375 µM (inactive) | > 375 µM (inactive) | > 375 µM (inactive) |  |  | 
2 | CCC(O)(c1ccc(OC)cc1)C(c1ccc(OCc2ccccc2)cc1)c1ccc(OCc2ccccc2)cc1 (stereo not drawn) | > 100 µM (inactive) | > 100 µM (inactive) | > 100 µM (inactive) | > 100 µM (inactive) | > 100 µM (inactive) | > 100 µM (inactive) | 99.5 µM (inactive) |  | > 100 µM (inactive) | > 100 µM (inactive) | > 100 µM (inactive) | > 100 µM (inactive) | > 100 µM (inactive) | > 100 µM (inactive) | > 100 µM (inactive) | > 100 µM (inactive) | > 100 µM (inactive) | > 100 µM (inactive) | > 100 µM (inactive)
3 | CC1=Nc2c(ccc3c2C(=O)c2ccccc2C3=O)NC(c2ccncc2)C1 (stereo not drawn) | > 10 µM (inactive) | > 100 µM (inactive) | > 10 µM (inactive) | 95.1 µM (inactive) | > 10 µM (inactive) | > 10 µM (inactive) | 57.4 µM (inactive) |  | 4.94 µM (inactive) | 41.5 µM (inactive) | 6.49 µM (inactive) | 5.07 µM (inactive) | 23.8 µM (inactive) | > 100 µM (inactive) | > 10 µM (inactive) | > 10 µM (inactive) | > 100 µM (inactive) | 0.135 µM (active) | > 10 µM (inactive)
4 | COC(=O)c1nn(C(=N)c2ccc(Cl)cc2)c2c1CCC2 | > 100 µM (inactive) | > 100 µM (inactive) | > 100 µM (inactive) | > 100 µM (inactive) | > 100 µM (inactive) | > 100 µM (inactive) | > 100 µM (inactive) |  | > 100 µM (inactive) | > 100 µM (inactive) | > 100 µM (inactive) | > 100 µM (inactive) | > 100 µM (inactive) | > 100 µM (inactive) | > 100 µM (inactive) | > 100 µM (inactive) | > 100 µM (inactive) | 14.7 µM (inactive) | > 100 µM (inactive)
5 | O=c1[nH]c(=O)n(CCOc2ccc(Cl)cc2)cc1Nc1ccccc1 | > 100 µM (inactive) | > 100 µM (inactive) | 12.4 µM (inactive) | > 100 µM (inactive) | > 100 µM (inactive) |  | > 100 µM (inactive) | > 100 µM (inactive) | > 100 µM (inactive) | > 100 µM (inactive) |  | > 100 µM (inactive) | > 100 µM (inactive) | > 100 µM (inactive) | > 100 µM (inactive) |  |  | > 100 µM (inactive) | 44.3 µM (inactive)
6 | O/N=C1/CCCc2nonc21 | > 100 µM (inactive) | > 100 µM (inactive) | > 100 µM (inactive) | > 100 µM (inactive) | > 100 µM (inactive) | > 100 µM (inactive) | > 100 µM (inactive) | > 100 µM (inactive) | > 100 µM (inactive) | > 100 µM (inactive) | > 100 µM (inactive) | > 100 µM (inactive) |  | > 100 µM (inactive) | > 100 µM (inactive) | > 100 µM (inactive) | > 100 µM (inactive) | > 100 µM (inactive) | > 100 µM (inactive)
